Like-named read-outs stand apart in the source and are kept apart here.
Columns and labels:
Assay in all cases: Kinase selectivity, DiscoverX scanMAX Kinase assay panel (% control)
Type in all cases: binding
[1] = target: T1, kinases of the scanMAX Kinase assay panel (Homo sapiens, UniProt Q8NG66); conditions: NEK11; 1 uM
T1 construct: purchased DiscoverX Co. (contract measurement) scanMAX Kinase assay panel
T1 sequence (Q8NG66 1-645): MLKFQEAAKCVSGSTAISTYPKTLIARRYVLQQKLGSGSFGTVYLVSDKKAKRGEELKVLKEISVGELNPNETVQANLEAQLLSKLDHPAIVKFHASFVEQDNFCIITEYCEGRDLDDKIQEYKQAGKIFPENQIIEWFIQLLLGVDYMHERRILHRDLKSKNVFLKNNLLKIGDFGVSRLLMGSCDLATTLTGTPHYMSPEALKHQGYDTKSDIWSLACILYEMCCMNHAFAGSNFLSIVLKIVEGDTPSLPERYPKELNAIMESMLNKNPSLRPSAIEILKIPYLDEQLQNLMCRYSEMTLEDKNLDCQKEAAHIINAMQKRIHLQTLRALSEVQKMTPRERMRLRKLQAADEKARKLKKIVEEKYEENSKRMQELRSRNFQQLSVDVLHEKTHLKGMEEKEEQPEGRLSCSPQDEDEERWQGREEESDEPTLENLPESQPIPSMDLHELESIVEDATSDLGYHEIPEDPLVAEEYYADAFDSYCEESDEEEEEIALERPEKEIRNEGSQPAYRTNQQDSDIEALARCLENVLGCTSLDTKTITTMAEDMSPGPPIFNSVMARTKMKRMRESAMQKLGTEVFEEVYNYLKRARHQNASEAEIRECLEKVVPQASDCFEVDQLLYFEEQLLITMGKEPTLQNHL
How it was run: (§1)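 Compounds were tested at 1 uM (in DMSO) against each panel kinase. % control was calculated as (compound − positive control)/(negative control − positive control)×100, where the positive control gives 0% and DMSO gives 100%. Activity toward a kinase was called at % control <35%.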

[2] = target: T2, kinases of the scanMAX Kinase assay panel (Homo sapiens, UniProt P08581, Y1235D); conditions: MET(Y1235D); 1 uM
T2 construct: purchased DiscoverX Co. (contract measurement) scanMAX Kinase assay panel
How it was run: as §1

[3] = target: T3, kinases of the scanMAX Kinase assay panel (Homo sapiens, UniProt Q8TF76); conditions: HASPIN; 1 uM
T3 construct: purchased DiscoverX Co. (contract measurement) scanMAX Kinase assay panel
T3 sequence (Q8TF76 1-798): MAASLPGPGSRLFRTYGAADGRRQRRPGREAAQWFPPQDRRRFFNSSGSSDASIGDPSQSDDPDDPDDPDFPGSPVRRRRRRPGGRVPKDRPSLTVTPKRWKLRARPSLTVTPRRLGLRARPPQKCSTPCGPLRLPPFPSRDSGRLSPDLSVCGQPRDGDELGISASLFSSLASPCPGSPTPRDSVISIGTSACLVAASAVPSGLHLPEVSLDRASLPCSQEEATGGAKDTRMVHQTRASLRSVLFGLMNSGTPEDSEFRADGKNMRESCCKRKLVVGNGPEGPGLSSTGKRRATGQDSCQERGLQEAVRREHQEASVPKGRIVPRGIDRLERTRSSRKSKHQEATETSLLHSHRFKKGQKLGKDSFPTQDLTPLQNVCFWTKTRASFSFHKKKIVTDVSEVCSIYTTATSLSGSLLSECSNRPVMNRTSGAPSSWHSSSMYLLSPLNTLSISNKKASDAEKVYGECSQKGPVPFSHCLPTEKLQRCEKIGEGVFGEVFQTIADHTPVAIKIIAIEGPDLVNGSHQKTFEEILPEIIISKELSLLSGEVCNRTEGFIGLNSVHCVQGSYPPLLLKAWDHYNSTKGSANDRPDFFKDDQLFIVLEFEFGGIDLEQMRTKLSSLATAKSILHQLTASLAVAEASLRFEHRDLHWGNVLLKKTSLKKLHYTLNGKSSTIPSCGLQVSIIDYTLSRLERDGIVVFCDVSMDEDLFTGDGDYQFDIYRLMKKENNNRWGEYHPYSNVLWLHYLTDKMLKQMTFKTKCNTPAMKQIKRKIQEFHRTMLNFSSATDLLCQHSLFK
How it was run: as §1

[4] = target: T4, kinases of the scanMAX Kinase assay panel (Homo sapiens, UniProt P07949, V804L); conditions: kinase RET(V804L); 1 uM in DMSO
T4 construct: purchased DiscoverX Co. (contract measurement) scanMAX Kinase assay panel
How it was run: as §1

[5] = target: T5, kinases of the scanMAX Kinase assay panel (Homo sapiens, UniProt P42336, H1047Y); conditions: PIK3CA(H1047Y); 1 uM
T5 construct: purchased DiscoverX Co. (contract measurement) scanMAX Kinase assay panel
How it was run: as §1

[6] = target: T6, kinases of the scanMAX Kinase assay panel (Homo sapiens, UniProt O75582); conditions: 1 uM in DMSO
T6 construct: purchased DiscoverX Co. (contract measurement) scanMAX Kinase assay panel
How it was run: as §1

[7] = target: T7, kinases of the scanMAX Kinase assay panel (Plasmodium falciparum, UniProt P61075); conditions: PFPK5(P. falciparum); 1 uM
T7 construct: purchased DiscoverX Co. (contract measurement) scanMAX Kinase assay panel
How it was run: as §1

[8] = target: T8, kinases of the scanMAX Kinase assay panel (Homo sapiens, UniProt Q9P0L2); conditions: MARK1; 1 uM
T8 construct: purchased DiscoverX Co. (contract measurement) scanMAX Kinase assay panel
How it was run: as §1

[9] = target: T9, kinases of the scanMAX Kinase assay panel (Homo sapiens, UniProt P14616); conditions: INSRR; 1 uM
T9 construct: purchased DiscoverX Co. (contract measurement) scanMAX Kinase assay panel
How it was run: as §1

[10] = kinase RPS6KA5(Kin.Dom.1-N-terminal), read-out: % control, RPS6KA5(Kin.Dom.1-N-terminal)
[11] = kinase RPS6KA5(Kin.Dom.2-C-terminal), read-out: % control, RPS6KA5(Kin.Dom.2-C-terminal)

T9 sequence (P14616 27-1297): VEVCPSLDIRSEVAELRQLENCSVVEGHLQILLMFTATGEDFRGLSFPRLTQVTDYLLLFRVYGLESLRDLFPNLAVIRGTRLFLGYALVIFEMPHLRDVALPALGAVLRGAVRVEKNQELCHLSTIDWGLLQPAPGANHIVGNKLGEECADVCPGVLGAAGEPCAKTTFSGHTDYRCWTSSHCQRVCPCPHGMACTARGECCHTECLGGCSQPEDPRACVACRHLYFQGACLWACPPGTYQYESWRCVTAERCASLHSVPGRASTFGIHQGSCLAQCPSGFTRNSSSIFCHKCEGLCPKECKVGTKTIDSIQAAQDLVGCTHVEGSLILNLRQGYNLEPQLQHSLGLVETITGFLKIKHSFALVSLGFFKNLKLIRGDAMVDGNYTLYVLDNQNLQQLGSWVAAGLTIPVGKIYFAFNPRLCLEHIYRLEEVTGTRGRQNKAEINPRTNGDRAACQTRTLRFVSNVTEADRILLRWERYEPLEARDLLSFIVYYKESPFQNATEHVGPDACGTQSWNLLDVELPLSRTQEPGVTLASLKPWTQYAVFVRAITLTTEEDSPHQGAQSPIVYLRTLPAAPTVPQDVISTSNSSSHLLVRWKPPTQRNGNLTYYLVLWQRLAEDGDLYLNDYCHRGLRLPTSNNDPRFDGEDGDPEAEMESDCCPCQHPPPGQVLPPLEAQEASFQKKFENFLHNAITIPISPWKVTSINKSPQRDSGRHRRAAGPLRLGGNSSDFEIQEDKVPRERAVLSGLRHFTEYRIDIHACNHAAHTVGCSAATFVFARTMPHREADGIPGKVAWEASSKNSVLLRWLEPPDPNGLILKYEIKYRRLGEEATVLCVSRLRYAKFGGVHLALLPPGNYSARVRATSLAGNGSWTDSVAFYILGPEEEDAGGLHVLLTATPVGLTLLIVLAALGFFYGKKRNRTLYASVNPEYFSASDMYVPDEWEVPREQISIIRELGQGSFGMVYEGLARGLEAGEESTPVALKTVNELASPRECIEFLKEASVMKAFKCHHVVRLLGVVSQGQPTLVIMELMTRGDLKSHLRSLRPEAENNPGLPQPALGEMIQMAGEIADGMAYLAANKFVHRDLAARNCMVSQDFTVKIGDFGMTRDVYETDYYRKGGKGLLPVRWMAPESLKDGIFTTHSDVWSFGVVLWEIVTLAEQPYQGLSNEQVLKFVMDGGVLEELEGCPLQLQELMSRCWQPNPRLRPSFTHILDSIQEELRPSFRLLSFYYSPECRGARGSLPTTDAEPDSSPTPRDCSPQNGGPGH
T8 sequence (Q9P0L2 whole entry): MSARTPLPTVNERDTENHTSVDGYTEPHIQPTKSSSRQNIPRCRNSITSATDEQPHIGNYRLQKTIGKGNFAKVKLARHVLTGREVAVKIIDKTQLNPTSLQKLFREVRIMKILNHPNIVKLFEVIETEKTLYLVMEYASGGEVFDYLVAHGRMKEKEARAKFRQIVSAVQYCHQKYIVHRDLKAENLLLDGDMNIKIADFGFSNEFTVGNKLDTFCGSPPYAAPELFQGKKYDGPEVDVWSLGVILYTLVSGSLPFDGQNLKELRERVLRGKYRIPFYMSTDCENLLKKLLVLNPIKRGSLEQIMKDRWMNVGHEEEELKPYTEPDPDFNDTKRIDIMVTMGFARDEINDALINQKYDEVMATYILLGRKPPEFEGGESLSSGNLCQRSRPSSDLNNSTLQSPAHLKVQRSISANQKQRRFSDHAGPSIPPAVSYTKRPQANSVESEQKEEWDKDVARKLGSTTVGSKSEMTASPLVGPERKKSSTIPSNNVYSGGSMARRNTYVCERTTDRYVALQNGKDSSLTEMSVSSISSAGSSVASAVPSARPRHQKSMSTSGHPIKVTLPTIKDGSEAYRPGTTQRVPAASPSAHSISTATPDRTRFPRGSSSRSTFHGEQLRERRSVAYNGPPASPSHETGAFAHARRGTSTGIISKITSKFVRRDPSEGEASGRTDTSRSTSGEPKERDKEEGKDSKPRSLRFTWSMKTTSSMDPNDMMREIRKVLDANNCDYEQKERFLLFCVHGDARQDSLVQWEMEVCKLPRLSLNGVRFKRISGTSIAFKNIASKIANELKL
T4 sequence (P07949 29-1114 V804L): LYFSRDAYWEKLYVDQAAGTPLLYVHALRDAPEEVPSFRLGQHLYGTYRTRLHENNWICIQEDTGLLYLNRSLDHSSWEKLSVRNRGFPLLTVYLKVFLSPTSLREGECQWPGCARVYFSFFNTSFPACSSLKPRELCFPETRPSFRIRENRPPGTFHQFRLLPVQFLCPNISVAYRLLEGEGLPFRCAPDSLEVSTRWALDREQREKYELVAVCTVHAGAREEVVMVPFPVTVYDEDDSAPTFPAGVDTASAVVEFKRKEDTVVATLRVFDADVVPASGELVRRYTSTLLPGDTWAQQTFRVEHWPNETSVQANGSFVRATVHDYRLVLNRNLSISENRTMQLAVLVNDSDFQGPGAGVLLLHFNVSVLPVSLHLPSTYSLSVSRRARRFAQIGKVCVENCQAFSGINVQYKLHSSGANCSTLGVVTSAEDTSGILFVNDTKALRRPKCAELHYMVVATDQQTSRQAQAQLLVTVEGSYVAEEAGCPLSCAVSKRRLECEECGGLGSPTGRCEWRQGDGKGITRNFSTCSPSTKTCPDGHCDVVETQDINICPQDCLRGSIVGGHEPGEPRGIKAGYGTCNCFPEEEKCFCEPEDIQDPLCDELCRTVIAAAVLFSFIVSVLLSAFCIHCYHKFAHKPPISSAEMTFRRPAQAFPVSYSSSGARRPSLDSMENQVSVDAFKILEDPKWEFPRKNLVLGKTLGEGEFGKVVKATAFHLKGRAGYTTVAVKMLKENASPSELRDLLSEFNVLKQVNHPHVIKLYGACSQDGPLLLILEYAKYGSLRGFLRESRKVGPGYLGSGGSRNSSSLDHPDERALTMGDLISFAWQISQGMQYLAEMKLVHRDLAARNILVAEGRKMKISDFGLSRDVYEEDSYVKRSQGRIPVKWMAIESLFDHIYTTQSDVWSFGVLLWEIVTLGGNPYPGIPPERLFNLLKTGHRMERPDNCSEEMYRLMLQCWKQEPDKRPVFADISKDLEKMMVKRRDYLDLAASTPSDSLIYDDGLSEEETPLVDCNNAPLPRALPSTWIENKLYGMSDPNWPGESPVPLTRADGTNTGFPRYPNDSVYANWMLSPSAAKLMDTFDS
T7 sequence (P61075 whole entry): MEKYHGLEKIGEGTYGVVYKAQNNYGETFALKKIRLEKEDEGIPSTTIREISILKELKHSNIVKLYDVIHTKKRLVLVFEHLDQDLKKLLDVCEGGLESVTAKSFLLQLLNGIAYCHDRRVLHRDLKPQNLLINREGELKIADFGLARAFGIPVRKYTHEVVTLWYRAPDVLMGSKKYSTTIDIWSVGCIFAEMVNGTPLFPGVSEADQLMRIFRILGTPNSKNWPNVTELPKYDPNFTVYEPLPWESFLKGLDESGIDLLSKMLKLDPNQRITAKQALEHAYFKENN
T2 sequence (P08581 25-1390 Y1235D): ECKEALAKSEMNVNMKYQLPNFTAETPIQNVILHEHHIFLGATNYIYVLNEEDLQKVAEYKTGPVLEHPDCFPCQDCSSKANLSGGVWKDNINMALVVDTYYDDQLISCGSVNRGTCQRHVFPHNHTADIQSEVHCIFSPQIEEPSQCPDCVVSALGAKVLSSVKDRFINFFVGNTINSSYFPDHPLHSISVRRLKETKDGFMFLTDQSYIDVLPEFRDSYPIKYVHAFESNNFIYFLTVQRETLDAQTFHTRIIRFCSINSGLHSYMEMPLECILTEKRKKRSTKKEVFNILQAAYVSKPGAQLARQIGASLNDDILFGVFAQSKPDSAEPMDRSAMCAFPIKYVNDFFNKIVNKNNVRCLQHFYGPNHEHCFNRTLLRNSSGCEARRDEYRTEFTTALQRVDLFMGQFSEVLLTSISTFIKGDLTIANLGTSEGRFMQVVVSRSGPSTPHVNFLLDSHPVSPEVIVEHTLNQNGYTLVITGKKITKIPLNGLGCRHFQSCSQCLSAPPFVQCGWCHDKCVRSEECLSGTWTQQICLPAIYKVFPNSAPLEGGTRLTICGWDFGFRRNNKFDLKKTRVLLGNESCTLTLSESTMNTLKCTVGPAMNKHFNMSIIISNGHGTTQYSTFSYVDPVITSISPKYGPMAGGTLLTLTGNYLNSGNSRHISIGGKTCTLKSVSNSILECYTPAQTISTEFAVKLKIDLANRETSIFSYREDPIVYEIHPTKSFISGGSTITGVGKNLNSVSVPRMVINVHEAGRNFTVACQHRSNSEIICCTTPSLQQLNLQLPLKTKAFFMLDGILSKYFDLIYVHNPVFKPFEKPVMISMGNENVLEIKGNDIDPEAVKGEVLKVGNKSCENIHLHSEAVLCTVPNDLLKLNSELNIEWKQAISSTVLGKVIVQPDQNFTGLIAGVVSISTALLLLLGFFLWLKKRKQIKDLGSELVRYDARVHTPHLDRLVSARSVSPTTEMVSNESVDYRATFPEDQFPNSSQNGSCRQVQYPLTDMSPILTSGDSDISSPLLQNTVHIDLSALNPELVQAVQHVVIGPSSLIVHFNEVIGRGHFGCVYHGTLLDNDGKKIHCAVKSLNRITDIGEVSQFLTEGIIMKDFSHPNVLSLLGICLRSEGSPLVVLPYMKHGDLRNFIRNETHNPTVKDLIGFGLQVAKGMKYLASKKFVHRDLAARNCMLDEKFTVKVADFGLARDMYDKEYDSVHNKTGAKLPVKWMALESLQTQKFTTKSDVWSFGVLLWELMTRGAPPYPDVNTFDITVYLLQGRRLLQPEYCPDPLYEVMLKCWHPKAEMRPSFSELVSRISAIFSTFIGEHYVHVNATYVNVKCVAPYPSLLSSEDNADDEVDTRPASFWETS

SMILES	remaining binding at 1 µM [1]	remaining binding at 1 µM [2]	remaining binding at 1 µM [3]	remaining binding at 1 µM [4]	remaining binding at 1 µM [5]	remaining binding at 1 µM [6, 10]	remaining binding at 1 µM [6, 11]	remaining binding at 1 µM [7]	remaining binding at 1 µM [8]	remaining binding at 1 µM [9]
CNc1nc(Nc2ccc(C(=O)N3CCOCC3)cc2OC)nc2[nH]cc(C#N)c12 [Example 1, 2-((2-methoxy-4-(morpholine-4-carbonyl)phenyl)amino)-4-(methylamino)-7H-pyrrolo[2,3-d]pyrimidine-5-carbonitrile]	70%	82%	63%	79%	100%	94%	12%	76%	91%	61%
CC1(Nc2nc(Nc3cnn([C@H]4CCN(C5COC5)C[C@@H]4F)c3Cl)nc3[nH]cc(C#N)c23)CC1 [Example 52, 2-((5-chloro-1-((3S,4S)-3-fluoro-1-(oxetane-3-yl)piperidine-4-yl)-1H-pyrazole-4-yl)amino)((1-methylcyclopropyl)amino)-7H-pyrrolo[2,3-d]pyrimidine-5-carbonitrile]	100%	31%	100%	0%	62%	100%	24%	100%	36%	6.5%
CCNc1nc(Nc2ccc(C(=O)N3CCC(N4CCOCC4)CC3)cc2OC)nc2[nH]cc(C(F)(F)F)c12 [Example 104, (4-((4-(ethylamino)-5-(trifluoromethyl)-7H-pyrrolo[2,3-d]pyrimidine-2-yl)amino)-3-methoxyphenyl)(4-morpholinopiperidine-1-yl)methanone]	100%	100%	100%	89%	96%	100%	83%	100%	100%	3.2%

Reference: US11208412B2 (DAEGU-GYEONGBUK MEDICAL INNOVATION FOUNDATION, priority 2017, dated 2021)
